Consider 1 compound from patent publication US9539237B2, “Compositions and methods for drug-sensitization or inhibition of a cancer cell” (The Texas A&M University System, priority 2012, dated 2017).

The structures appear in SMILES notation.

One series has as its system total intracellular ROS. The series can be described thus: Intracellular ROS by CellROX staining and flow cytometry. Particulars: CHOP-resistant (G3) cells, 10 uM rifabutin, FIG. 35. Type of series: cell-based. From the text:
Cells were then stained with the fluorescent ROS indicator, CellROX, and subjected to flow cytometry to quantitate total intracellular ROS.
The electron transport chain (ETC) is known to be a primary generator of ROS in the cell. Most of the ROS is generated by Complexes I and III of the ETC. Inhibition of Complex I results in electrons piling up and leaking to react with oxygen to produce ROS.
MDR/P-gp activity is closely associated with calcium status in the cell, so calcium modulators were tested for effects on ROS. […] Relatively Dox-sensitive lymphoma (CRL2631, 10S, WSU) and ovarian carcinoma (OVCAR8) and more Dox-resistant lymphoma (G3R, 10R, WSUR) and ovarian carcinoma (ADR) were treated with 10 uM […] for 2 hrs. […] Cells were co-stained with the cell-permeable red fluorescent ROS indicator, CellROX, and cell-permeable green fluorescent calcium indicator. Fluo-4AM, and then subjected to flow cytometry to quantitate changes in ROS and calcium levels.
All samples were analyzed at the same time in flow cytometry.

The subject of series [1] is primary human fibroblasts. The experiment in a line: Comparative cytotoxicity on primary human fibroblasts. Particulars: FIG. 3A and 3B.
The test system of series [2] is lymphoma aspirate from a dog with CHOP-resistant lymphoma. The series can be described thus: CHOP responsiveness of lymphoma aspirate from a dog (resazurin). Type of series: cell-based. How it is done:
A single lymphoma aspirate from a dog with CHOP-resistant lymphoma was tested for responsiveness to CHOP in the presence or absence of rifabutin. CHOP-responsiveness was measured by a decrease in fluorescence signal generated by resazurin.
(Alamar Blue is a resazurin reagent that responds to reducing activity.)

Another series deals with CRL2631 cells. The series can be described thus: Collagen invasion 3D assay, CRL2631 cells. It counts as cell-based, human. To be noted: 10 uM Rifabutin in collagen matrix, 24 hours. How it is done: The effects of rifabutin on cell invasion was assessed in a collagen invasion 3D assay. Increased interest in the use of 3D culture systems has been motivated by accumulating evidence that 3D models better reflect the microenvironment of tumors and metastases and more accurately predict therapeutic response in vivo compared with conventional 2D assays. A collagen invasion 3D assay allows the rapid and quantitative assessment of invasiveness and a means to screen for drugs which alter the invasive phenotype of tumor cells.
The CHOP-resistant G3 cell line is much more invasive in a collage invasion 3D assay than its CHOP-sensitive parent cell line (CRL2631). Collagen matrices (1 mg/ml) were prepared as previously described in Su. S. C., et al., Molecular profile of endothelial invasion of three-dimensional collagen matrices: insights into angiogenic sprout induction in wound healing. Am. J. Physiol. […] Cell invasion density was quantified by counting fixed cultures under transmitted light using an Olympus CK2 inverted microscope equipped with eyepieces displaying a 10×10 ocular grid. For each condition, four random fields were selected and the number of invading cells per high power field (HPF) was counted manually at 10× magnification, corresponding to 1 mm^2 area. […]

Another series deals with ABCB1 pumps (Homo sapiens, UniProt P08183). Particulars: NCI/ADR-RES and G3 cells.
Chain of ABCB1 pumps (P08183 whole entry): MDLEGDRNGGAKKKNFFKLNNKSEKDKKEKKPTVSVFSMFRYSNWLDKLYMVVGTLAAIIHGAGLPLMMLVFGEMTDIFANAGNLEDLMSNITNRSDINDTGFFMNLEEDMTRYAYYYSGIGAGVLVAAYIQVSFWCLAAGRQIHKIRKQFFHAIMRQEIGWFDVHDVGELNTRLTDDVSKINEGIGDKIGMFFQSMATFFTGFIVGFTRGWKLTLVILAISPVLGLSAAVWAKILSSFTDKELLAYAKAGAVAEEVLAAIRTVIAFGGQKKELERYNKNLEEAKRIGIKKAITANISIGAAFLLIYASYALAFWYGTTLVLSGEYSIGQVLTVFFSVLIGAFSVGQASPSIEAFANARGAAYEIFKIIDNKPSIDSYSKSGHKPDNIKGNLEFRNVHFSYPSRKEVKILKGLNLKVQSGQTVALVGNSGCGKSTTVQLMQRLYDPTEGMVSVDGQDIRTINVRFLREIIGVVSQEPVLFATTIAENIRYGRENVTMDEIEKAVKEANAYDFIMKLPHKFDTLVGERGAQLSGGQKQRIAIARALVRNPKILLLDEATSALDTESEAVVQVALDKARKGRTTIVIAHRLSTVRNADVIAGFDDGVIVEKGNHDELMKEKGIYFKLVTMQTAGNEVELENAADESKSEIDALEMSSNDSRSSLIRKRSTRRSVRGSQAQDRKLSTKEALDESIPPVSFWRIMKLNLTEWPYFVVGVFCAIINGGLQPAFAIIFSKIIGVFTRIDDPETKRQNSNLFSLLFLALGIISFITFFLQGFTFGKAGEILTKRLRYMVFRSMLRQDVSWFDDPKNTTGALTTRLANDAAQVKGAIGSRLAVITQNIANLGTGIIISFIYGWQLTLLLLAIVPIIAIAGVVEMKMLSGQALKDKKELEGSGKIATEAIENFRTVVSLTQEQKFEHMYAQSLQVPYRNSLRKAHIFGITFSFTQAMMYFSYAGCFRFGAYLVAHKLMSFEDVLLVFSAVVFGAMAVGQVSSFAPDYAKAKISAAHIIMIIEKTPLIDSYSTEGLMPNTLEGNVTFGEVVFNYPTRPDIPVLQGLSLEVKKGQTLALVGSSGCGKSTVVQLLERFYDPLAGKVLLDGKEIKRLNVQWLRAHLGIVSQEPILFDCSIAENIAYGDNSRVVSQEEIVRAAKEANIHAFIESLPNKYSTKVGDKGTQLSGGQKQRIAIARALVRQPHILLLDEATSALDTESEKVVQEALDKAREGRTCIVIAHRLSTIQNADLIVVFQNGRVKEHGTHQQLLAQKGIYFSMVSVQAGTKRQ
The test system of series [3] is CHOP-resistant G3 NHL cells. The series can be described thus: Cell growth assay (resazurin fluorescence) on G3 cells. Type of series: cell-based, human. How it is done: Compositions were tested on CHOP-resistant G3 NHL cells that had been cultivated in RPMI medium for five days. Prior to assay, the cells were counted by haemocytometer and cell concentration standardized to 625,000 cells/ml. Test drugs were solubilized in 100% DMSO and then diluted to final assay concentration with 0.1M phosphate buffered saline (PBS) and a final DMSO concentration of 0.5%. […] The metabolic dye rezasurin was added to the wells of the assay plate at a final concentration of 20 μg/ml and the plates were incubated for an additional 24 hours. The plates were then read in a BMG Polarstar plate reader at wavelength (573-605) and the data plotted as OD versus increasing dilutions (i.e., decreasing total amounts) of rifabutin derivative concentration.
In these experiments, the following cell lines were used: CHOP-resistant NHL cell line G3, CHOP-sensitive NHL cell line CRL2631, the multi-drug resistant sarcoma cell line MES-SA-Dx5; multi-drug-resistant breast cancer cell line MDA-MB-231, multi-drug resistant ovarian carcinoma cell line SK-OV3, multi-drug resistant ovarian cancer cell line NCI/ADR-RES, drug-sensitive ovarian cancer cell line OVCAR-5, and multi-drug resistant ovarian cancer cell line OVCAR-3. […]

The next series has as its system Akt. The experiment in a line: Effect on Akt. Type of series: cell-based. From the text:
Although some drug-sensitization or cancer cell inhibition effects may be mediated by the ROS pathway, compositions and methods of the present disclosure may act via other cellular pathways alternatively to or in addition to the Akt/14-3-3ζ/ETC/ROS network. This may be particularly true with respect to drug-sensitization to chemotherapeutics that operate in a different manner than CHOP. For example, ROS may affect the mitochondrial-directed Bcl-2 apoptosis pathway as well. […] Accordingly, it appears likely that an initial ROS induction event may occur, followed by a secondary downstream effect downregulating Akt. In CHOP-resistant cells, Akt is constitutively active thereby increasing Complex I activity resulting in decreases in ROS. Induction of ROS by compositions and methods of the present disclosure will further promote drug sensitivity in the resistant cancer cell by downregulating the Akt pathway.

In series [4] the test system is CHOP-sensitive NHL cell line CRL2631. The series can be described thus: Cell growth assay (resazurin fluorescence) on CRL2631 cells. It counts as cell-based, human. From the text: Several human cell lines were utilized as in vitro models of NHL, including the CRL2631 line obtained from the American Type Culture Collection (ATCC). CRL2631 was established from peripheral blood leukocytes (PBL) of a patient with DLBCL.
In these experiments, the following cell lines were used: CHOP-resistant NHL cell line G3, CHOP-sensitive NHL cell line CRL2631, the multi-drug resistant sarcoma cell line MES-SA-Dx5; multi-drug-resistant breast cancer cell line MDA-MB-231, multi-drug resistant ovarian carcinoma cell line SK-OV3, multi-drug resistant ovarian cancer cell line NCI/ADR-RES, drug-sensitive ovarian cancer cell line OVCAR-5, and multi-drug resistant ovarian cancer cell line OVCAR-3.
Additional cell lines used include: ovarian cancer OVCAR-8. T lymphoblastoid leukemia MOLT-4, dexamethasone-resistant multiple myeloma MM.1R, myeloid leukemia cells HL-60, osteosarcoma cells U-2 OS, and myeloma RPMI 8226.

In the case of `CO[C@H]1/C=C/O[C@@]2(C)Oc3c(C)c(O)c4c(c3C2=O)C2=NC3(CCN(CC(C)C)CC3)NC2=C(NC(=O)/C(C)=C\C=C\[C@H](C)[C@H](O)[C@@H](C)[C@@H](O)[C@@H](C)[C@H](OC(C)=O)[C@@H]1C)C4=O` [Rifabutin, rifabutin], the “Induction of ROS” value with total intracellular ROS is “rapidly induces ROS”. For the same compound, the “Toxicity to normal cells” value in series [1] was “not toxic”. For the same compound, the “Sensitivity of aspirated lymphoma cells to CHOP” value in series [2] (5 μM rifabutin) was “significantly enhanced the sensitivity”. Also, the “Effect on cell viability in the absence of CHOP” value in series [2] (absence of CHOP) was “no effect”. Besides, in the series on CRL2631 cells, the “Reduction of the amount of invasion” value is reported as “Less of this effect”. Besides, the “Inhibition of efflux pumps” value on ABCB1 pumps is “clear inhibition”. Moreover, in series [3] (G3), the “Magnitude of potentiation in combination with doxorubicin” value is given as “+++ (+++ potentiation greater than 5 fold increase)”. Moreover, the “Effect on growth of cells in the absence of CHOP” value in series [3] (G3 cells, FIG. 2A) is on record as “did not affect the growth”; in series [4] (CRL2631 cells, FIG. 2A), “did not affect the growth”. For the same compound, the “Time for the effect on Akt” value in the series on Akt is on record as “at least 18 hours”. Also, the “Sensitivity of cells to CHOP” value in series [4] (CHOP-sensitive cells, relative to a control drug, FIG. 2B) was “enhanced the sensitivity”. In addition, the “Sensitization of low-ROS cell population to CHOP” value in series [4] (low-ROS CRL2631 cells, 10 uM rifabutin, FIG. 34) is recorded as “sensitized to CHOP”.
